Measurements as given in patent US9790225B2, “4-amino-3-phenylamino-6-phenylpyrazolo[3,4-d]pyrimidine derivatives, their manufacture and their use as antiviral active substances” (Scandion Oncology A/S, priority 2011, dated 2017).
Where two headings read alike, the source gives them in different places. Marks after values point to notes of the source that are not given here.

Columns and labels:
[1] = in vivo; cited from earlier work
[2] = in vivo; cited from earlier work; remark: listed apart in the source
[3] = system: CVB3 31-1-93; assay: Lethal mouse model of CVB3-induced myocarditis; format: in vivo; settings: CVB3 31-1-93-infected BALB/c mice, 100 mg/kg twice a day over 7 days
Method: Investigations: The effect of the development candidate CRCV-340 was examined following testing of the infection dose in the model of the CVB 3-induced myocarditis in 6-7 weeks old male BALB/c mice. In addition CVB3 31-1-93 or CVB3 H3-infected animals received twice a day 100 mg/kg of the substance in 20% PEG-400 in 1% CMC in water (placebo) administered over 7 days. Changes in body weight, general condition and the lethality defined through the surrogate marker 25% loss of body weight served as parameters to evaluate the therapeutic effect. Pseudo-infected, placebo-treated or CRCV-340-treated animals represented the negative control and infected, placebo- or pleconaril-treated animals the positive control over the course of the infection.

[4] = system: CVB3 31-1-93; assay: Mouse model of CVB3-induced chronic myocarditis; format: in vivo; settings: CVB3 31-1-93-infected NMRI mice, 100 mg/kg once or twice a day over 7 days
Method: Investigations: The effect of CRCV-340 was investigated in the model of CVB 3-induced myocarditis in 8-week old male NMRI mice. In addition CVB3 31-1-93 or CVB3 H3-infected animals received once or twice a day 100 mg/kg of the substance in 50% or 20% PEG-400 in 1% CMC in water (placebo) administered over 7 days. Parameters to evaluate the therapeutic effect included changes in body weight, general condition, virus titre in heart and pancreas tissue as well as histopathological changes in the heart and pancreas. Pseudo-infected, placebo-treated or CRCV-340-treated animals served as a negative control and infected, placebo- or pleconaril-treated animals as a positive control over the course of the infection.

[5] = Stability in liver microsomes in vitro (ADMET); format: in vitro ADME; settings: for Stability in liver microsomes: in vitro
Source text: (§1) Objective: To investigate the Absorption, Distribution, Metabolism, Excretion and Toxicity (abbreviated as: ADMET) of OBR 5-340 in vitro, as well as in vitro tests on the plasma protein binding and the stability in the plasma and in liver microsomes. Tests: The In vitro tests performed with CRCV-340 as well as the data obtained are summarised in Table 2 in comparison with Ref. 2.

[6] = Acute toxicity in mice after single peroral administration; format: in vivo; settings: for LD50 at 72 h: mouse, in vivo; for LD50 at 72 h / LD50: single peroral administration
Method: Tests: The acute toxicity of the substance CRCV-340 was tested in mice 19.5-20.5 g in weight, which was administered per os 40, 60, 80 or 120 mg substance/mouse (per 5 mice per substance and concentration). This corresponds to a dose of approx. 2 g, 3 g, 4 g or 6 g per kilogramme body weight. The toxic effects observed in the result correlated to the substance dose administered.

[7] = Pharmacokinetics in mice, single per os application, HPLC of plasma; format: in vivo; settings: for AUC(0-t) / AUC(0-inf) / Cmax / MRT / half-life / Tmax: mouse, po; for AUC(0-t): read-out: AUC0-t (area under curve); for AUC(0-inf): read-out: AUC0-∞ (area under curve); for Cmax: read-out: Cmax (maximum concentration in the blood); for MRT: read-out: MRT (mean residence time); for half-life: read-out: T1/2 (half life) (converted); for Tmax: read-out: Tmax (time to reach the maximum concentration in the blood)
Method: Tests: Substance and reference substance were applied respectively once in a concentration of 100 mg/kg KG, in 0.5 ml of a 10% Cremophor solution per os to the mice, After 0.5, 1, 2, 3, 4, 5, 6 and 7 hrs serum was taken and by means of HPLC analysis the concentrations of CRCV-340, Ref-2 and Ref-3 determined in the plasma of the mice.
Using the substance concentrations in the blood plasma determined by HPLC the pharmacokinetic parameters of the substances were calculated using the computer program ESTRIP (Table 3).

[8] = Plasma stability in vitro (ADMET); format: in vitro ADME
Source text: as §1

[9] = system: plasma protein; assay: Plasma protein binding and release in vitro (ADMET); format: in vitro ADME; settings: for Binding to plasma protein / Release of plasma protein: in vitro
Source text: as §1

[10] = system: clinical CVB3 isolates; assay: Plaque-reduction test with clinical CVB3 isolates; format: cell-based; settings: for IC50: Enterovirus B, CVB3; for Number of sensitive CVB3: of 20 clinical isolates, CRCV-340 maximum tested concentration 13.5 μM
Source text: (§2) Objective: To determine the antiviral effective spectrum of CRCV-340 in respect of 50 different human rhinovirus serotypes and CVB3 patient isolates.
(§3) Tests: The 50 HRV serotypes and 20 clinical CVB3 isolates were reproduced in HeLa, HeLa Wis and/or LF cells, their titre determined and the serotype verified using sequencing. Accordingly zpE (zytopathic effect) inhibitory tests with the HRV or plaque-reductions tests with the CVB3 isolates were established. In the corresponding antiviral tests dose effect investigations with Ref-3 and CRCV-340 were carried out. Tables 5 and 6 give an overview of the mean 50% inhibitory concentrations.

[11] = Subacute toxicity in mice over 28 days, intragastric; format: in vivo; settings: mice, 12.5, 50 or 200 mg/kg once a day over 28 days
Method: Objective: To determine the subacute toxicity in mice in order to reveal possible side effects e.g. on general condition, weight, internal organs and metabolism, which could arise with subacute administration of CRCV-340 over 28 days.
Tests: Thus male and female mice weighing approx. 20 g received 12.5, 50 or 200 mg/kg of the substance CRCV-340 in a Cremophor formulation or the control group received Cremophor once a day over 28 days intragastrically administered via a tube. During the total period of the experiment the condition of the coat and the mucous membranes, the excreta and the general condition were assessed. The recording of the weight took place on days 7, 14, 21 and 28. Approx. 24 hrs. after the last substance dose the sense of direction of the animals was examined. The following biochemical parameters in the serum were analysed: protein content, urea, creatinine, the serum activity of aspartate aminotransferase, alanine aminotransferase and alkaline phosphatase. The haemoglobin concentration, hematocrit, the number of red and white blood cells as well as the platelets was determined in the blood smear. At the end of the experiment the mice were killed under anaesthetic and dissected, the condition of the internal organs were assessed macroscopically, the organ weight determined and samples for subsequent histological tests put into formalin.

[12] = system: human rhinovirus serotypes (HRV); assay: zpE (cytopathic effect) inhibitory test with HRV serotypes; format: cell-based; settings: for IC50: Human rhinovirus sp.; for Number of sensitive HRV: of 50 examined serotypes
Source text: as §2, §3

[13] = single peroral dose 40 mg/mouse
[14] = single peroral dose 60 mg/mouse
[15] = single peroral dose 80 mg/mouse
[16] = single peroral dose 120 mg/mouse
[17] = plasma, mice, single intragastric 100 mg/kg
[18] = mean over 19 pleconaril-sensitive isolates, read-out: IC50 Pleconaril-sensitive CVB3 (n = 19), mean
[19] = mean over all 20 clinical isolates, read-out: IC50 all CVB3 (n = 20), mean
[20] = the one pleconaril-resistant isolate, read-out: IC50 Pleconaril-resistant CVB3 (n = 1)
[21] = mice, single intragastric 100 mg/kg
[22] = read-out: IC50 Pleconaril-resistant HRV (n = 5), mean
[23] = read-out: IC50 Pleconaril-sensitive HRV (n = 45), mean
[24] = read-out: IC50 all HRV (n = 50), mean

Nc1nc(-c2ccccc2)nc2[nH]nc(Nc3ccc(F)cc3)c12 [Ref-5, 4-amino-3-[(4-fluorophenyl)amino]-6-phenylpyrazolo[3,4-d]pyrimidine]
melting point: 262 to 263 °C

Nc1nc(-c2cc(C(F)(F)F)cc(C(F)(F)F)c2)nc2[nH]nc(Nc3ccc(Cl)cc3)c12 [MS-115]
melting point: 272 to 274 °C

Cc1cc(CCCCCCCOc2ccc(C3=NCCO3)cc2)on1 [disoxaril]
Metabolisation and excretion [1]: fast metabolisation and excretion | Bioavailability [2]: low bioavailability

Cc1cc(CCCOc2c(C)cc(-c3noc(C(F)(F)F)n3)cc2C)on1 [pleconaril]
Therapeutic effect (body weight, general condition, lethality) [3]: In contrast to the placebo and pleconaril CRCV-340 was effective | Bioavailability [2]: very good oral bioavailability | Therapeutic effect (body weight, general condition, virus titre in heart and pancreas, histopathology) [4]: in contrast to the placebo and pleconaril CRCV-340 was effective

Nc1nc(-c2ccccc2)nc2[nH]nc(Nc3ccccc3)c12 [Ref-2, 4-amino-3-(phenylamino)-6-phenylpyrazolo[3,4-d]pyrimidine]
Stability in liver microsomes [5]: 32.0% | LD50 at 72 h [6]: 3930 mg/kg | LD50 [6]: 78.6 mg/mouse | Dead/Surviving 72 hrs after administration [6, 13]: 0/5 | Dead/Surviving 72 hrs after administration [6, 14]: 1/5 | Dead/Surviving 72 hrs after administration [6, 15]: 3/5 | Dead/Surviving 72 hrs after administration [6, 16]: 4/5 | AUC(0-t) [7, 17]: 2350 ng·h/mL | AUC(0-inf) [7, 17]: 2730 ng·h/mL | Cmax [7, 17]: 1300 ng/mL | MRT [7, 17]: 2.14 h | half-life [7, 17]: 2.96 h | Tmax [7, 17]: 1 h | Plasma stability [8]: 117.0% | Binding to plasma protein [9]: 99.5% | Release of plasma protein [9]: 61.0%

Nc1nc(-c2ccccc2)nc2[nH]nc(Nc3ccc(C(F)(F)F)cc3)c12 [CRCV-340, 4-amino-3-(4-trifluormethyl-phenyl)amino-6-phenylpyrazolo[3,4-d]pyrimidine]
IC50 [10, 18]: 5.16 µM | IC50 [10, 19]: 4.97 µM | IC50 [10, 20]: 1.39 µM | Number of sensitive CVB3 [10]: 18* | Stability in liver microsomes, comparison in words ([5]; compared with Ref-2 / state-of-the-art substances): better stability in liver microsomes | Stability in liver microsomes [5]: 112.0% | Therapeutic effect (body weight, general condition, lethality) [3]: effective | LD50 at 72 h [6]: 3120 mg/kg | LD50 [6]: 62.4 mg/mouse | Dead/Surviving 72 hrs after administration [6, 13]: 1/5 | Dead/Surviving 72 hrs after administration [6, 14]: 1/5 | Dead/Surviving 72 hrs after administration [6, 15]: 3/5 | Dead/Surviving 72 hrs after administration [6, 16]: 5/5 | Therapeutic effect (body weight, general condition, virus titre in heart and pancreas, histopathology) [4]: effective | Tolerance on subacute administration [11]: extremely good tolerance | Bioavailability in mice, comparison in words ([7]; compared with Ref-2 and Ref-3 / state-of-the-art substances): significantly better bioavailability | Cmax (maximum concentration in the blood) [7, 21]: 1254.4 ng/mL | MRT (mean residence time) [7, 21]: 3.54 h | half-life ([7]; in vivo, mice, single intragastric 100 mg/kg): 3.54 h | AUC(0-inf) [7, 17]: 9600 ng·h/mL | Tmax [7, 17]: 3 h | Plasma stability [8]: 100.0% | Effective spectrum in respect of HRV in comparison to Ref-3 ([12]; 50 HRV serotypes): significantly broader | IC50 [12, 22]: 22.6 µM | IC50 [12, 23]: 26.1 µM | IC50 [12, 24]: 25.7 µM | Number of sensitive HRV [12]: 49 | Release of plasma protein, comparison in words ([9]; in comparison with Ref-2): increased release of plasma protein | Binding to plasma protein [9]: 96.7% | Release of plasma protein [9]: 122.3%

Nc1nc(-c2ccccc2)nc2[nH]nc(Nc3ccc(Cl)cc3)c12 [Ref-3, 4-amino-3-(4-chlorphenyl)amino-6-phenylpyrazolo[3,4-d]pyrimidine]
IC50 [10, 18]: 0.71 µM | IC50 [10, 19]: 0.68 µM | IC50 [10, 20]: 0.13 µM | Number of sensitive CVB3 [10]: 20 | AUC(0-t) [7, 17]: 1090 ng·h/mL | AUC(0-inf) [7, 17]: 1090 ng·h/mL | Cmax [7, 17]: 424 ng/mL | MRT [7, 17]: 2.44 h | half-life [7, 17]: 1.47 h | Tmax [7, 17]: 0.5 h | IC50 [12, 22]: 0.07 µM | IC50 [12, 23]: 18.5 µM | IC50 [12, 24]: 16.1 µM | Number of sensitive HRV [12]: 23

Nc1nc(-c2cccc(C(F)(F)F)c2)nc2[nH]nc(Nc3ccccc3)c12 [MS-117]
melting point: 230 to 232 °C

Nc1nc(-c2ccccc2C(F)(F)F)nc2[nH]nc(Nc3ccc(Cl)cc3)c12 [MS-116]
melting point: 271 to 273 °C
